Reference: BindingDB's records for doi:10.1038/nchembio.1865 (University of British Columbia, 2015)

Target: T1, Pancreatic alpha-amylase (Homo sapiens, UniProt P04746)
T1 sequence (P04746 whole entry): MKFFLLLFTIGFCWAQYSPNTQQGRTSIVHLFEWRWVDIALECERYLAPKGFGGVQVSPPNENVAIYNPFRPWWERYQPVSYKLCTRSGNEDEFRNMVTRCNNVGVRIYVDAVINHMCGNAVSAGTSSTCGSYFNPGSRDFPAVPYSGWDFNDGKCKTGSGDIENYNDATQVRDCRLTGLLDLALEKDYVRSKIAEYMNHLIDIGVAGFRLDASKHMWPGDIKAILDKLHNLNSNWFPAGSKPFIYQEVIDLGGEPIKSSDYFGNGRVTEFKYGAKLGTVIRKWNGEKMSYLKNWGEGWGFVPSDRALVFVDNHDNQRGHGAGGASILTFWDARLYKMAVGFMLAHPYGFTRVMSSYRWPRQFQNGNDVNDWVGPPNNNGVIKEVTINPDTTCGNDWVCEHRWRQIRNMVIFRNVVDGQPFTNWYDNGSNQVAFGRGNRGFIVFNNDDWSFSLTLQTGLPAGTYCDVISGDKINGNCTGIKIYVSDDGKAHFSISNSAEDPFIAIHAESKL
Experiment: Kinetic Studies
Settings: 30 °C
Procedure: 2-Chloro-4-nitrophenyl α-d-maltotrioside (CNP-G3) was used as the substrate in a similar range of concentrations. Initial reaction rates for the release of chloronitrophenolate were measured and the further progress of substrate cleavage monitored continuously. Reactions were performed on a Varian Cary 4000 UV/Vis spectrophotometer at 400 nm and 30 °C.

SMILES | Ki [nM]
C[C@@H]1O[C@@H](O[C@@H]2CO[C@@H](Oc3c(O)cc(-c4oc5cc(O)cc(O)c5c(=O)c4O[C@@H]4O[C@@H](C)[C@H](O)[C@@H](O)[C@H]4O[C@@H]4O[C@H](CO)[C@@H](O)[C@H](O)[C@H]4O)cc3O)[C@H](O)[C@H]2O)[C@H](O)[C@H](O)[C@H]1O [MbA-CG (7)] | 2240
C[C@@H]1O[C@@H](Oc2c(-c3cc(O)c(O[C@@H]4OC[C@@H](O)[C@H](O)[C@H]4O)c(O)c3)oc3cc(O)cc(O)c3c2=O)[C@H](O[C@@H]2O[C@H](CO)[C@@H](O)[C@H](O)[C@H]2O)[C@H](O)[C@H]1O [MbA-CGR (9)] | 128000
C[C@@H]1O[C@@H](O[C@@H]2CO[C@@H](Oc3c(O)cc(-c4oc5cc(O)cc(O)c5c(=O)c4O[C@@H]4O[C@@H](C)[C@H](O)[C@@H](O)[C@H]4O[C@@H]4O[C@H](CO)[C@@H](O)[C@H](O)[C@H]4O[C@@H]4O[C@H](CO)[C@@H](O)[C@H](O)[C@H]4O)cc3O)[C@H](O)[C@H]2O)[C@H](O)[C@H](O)[C@H]1O [MbA-C (6)] | 730
O=C(/C=C/c1ccc(O)c(O)c1)NCc1cn(CCCCCCOc2c(-c3ccc(O)c(O)c3)oc3cc(O)cc(O)c3c2=O)nn1 [mini-MbA analog inhibitor 10] | 13900
C[C@@H]1O[C@@H](Oc2c(-c3cc(O)c(O[C@@H]4OC[C@@H](O)[C@H](O)[C@H]4O)c(O)c3)oc3cc(O)cc(O)c3c2=O)[C@H](O[C@@H]2O[C@H](CO)[C@@H](O)[C@H](O)[C@H]2O[C@@H]2O[C@H](CO)[C@@H](O)[C@H](O)[C@H]2O)[C@H](O)[C@H]1O [MbA-CR (8)] | 46800

Compounds with a lower Ki, results first:

Ki [nM] | SMILES
93.3 | C[C@@H]1O[C@@H](Oc2c(-c3cc(O)c(O)c(O)c3)oc3cc(O)cc(O)c3c2=O)[C@H](O[C@@H]2O[C@H](COC(=O)/C=C/c3ccc(O)c(O)c3)[C@@H](O)[C@H](O)[C@H]2O)[C@H](O)[C@H]1O [mini-MbA]
79.3 | C[C@@H]1O[C@@H](Oc2c(-c3cc(O)c(O[C@@H]4OC[C@@H](O)[C@H](O)[C@H]4O)c(O)c3)oc3cc(O)cc(O)c3c2=O)[C@H](O[C@@H]2O[C@H](COC(=O)/C=C/c3ccc(O)c(O)c3)[C@@H](O)[C@H](O)[C@H]2O)[C@H](O)[C@H]1O [MbA-GR (4)]
42.4 | C[C@@H]1O[C@@H](Oc2c(-c3cc(O)c(O)c(O)c3)oc3cc(O)cc(O)c3c2=O)[C@H](O[C@@H]2O[C@H](COC(=O)/C=C/c3ccc(O)c(O)c3)[C@@H](O)[C@H](O)[C@H]2O[C@@H]2O[C@H](CO)[C@@H](O)[C@H](O)[C@H]2O)[C@H](O)[C@H]1O [MbA-RX (3)]
9.1 | C[C@@H]1O[C@@H](O[C@@H]2CO[C@@H](Oc3c(O)cc(-c4oc5cc(O)cc(O)c5c(=O)c4O[C@@H]4O[C@@H](C)[C@H](O)[C@@H](O)[C@H]4O[C@@H]4O[C@H](COC(=O)/C=C/c5ccc(O)c(O)c5)[C@@H](O)[C@H](O)[C@H]4O)cc3O)[C@H](O)[C@H]2O)[C@H](O)[C@H](O)[C@H]1O [MbA-G (1)]
